# pIC50: −log10 of the molar value.
# How the values were obtained:
# Assay in all cases: Dose response of growth, tumor cell line
# HOP-18 = format: cell-based; conditions: Homo sapiens, HOP-18, non-small cell lung cancer
# Experimental: (§1) Indeed, 70% of the cell lines were shown not only to experience precluded growth, but cell death, when exposed to less then 100 μM of the active ingredient.
# CCRF-CEM = format: cell-based; conditions: Homo sapiens, leukemia
# Experimental: as §1
# A549/ATCC = format: cell-based; conditions: Homo sapiens, non-small cell lung cancer
# Experimental: as §1
# SNB-78 = format: cell-based; conditions: Homo sapiens, SNB-78, CNS cancer
# Experimental: as §1
# MCF7 = format: cell-based; conditions: Homo sapiens, MCF7, miscellaneous
# Experimental: as §1
# OVCAR-5 = format: cell-based; conditions: Homo sapiens, OVCAR-5, ovarian cancer
# Experimental: as §1
# M19-MEL = format: cell-based; conditions: Homo sapiens, melanoma
# Experimental: as §1
# K-562 = format: cell-based; conditions: Homo sapiens, K562, K-562, leukemia
# Experimental: as §1
# RXF-393 = format: cell-based; conditions: Homo sapiens, RXF-393, renal cancer
# Experimental: as §1
# HT29 = format: cell-based; conditions: Homo sapiens, HT-29, HT29, colon cancer
# Experimental: as §1
# SN12C = format: cell-based; conditions: Homo sapiens, renal cancer
# Experimental: as §1
# SK-MEL-28 = format: cell-based; conditions: Homo sapiens, SK-MEL-28, melanoma
# Experimental: as §1
# UACC-257 = format: cell-based; conditions: Homo sapiens, UACC-257, melanoma
# Experimental: as §1
# KM12 = format: cell-based; conditions: Homo sapiens, KM12, colon cancer
# Experimental: as §1
# OVCAR-8 = format: cell-based; conditions: Homo sapiens, OVCAR-8, ovarian cancer
# Experimental: as §1
# UO-31 = format: cell-based; conditions: Homo sapiens, UO-31, renal cancer
# Experimental: as §1
# COLO 205 = format: cell-based; conditions: Homo sapiens, COLO 205, colon cancer
# Experimental: as §1
# IGROVI = format: cell-based; conditions: Homo sapiens, ovarian cancer
# Experimental: as §1
# DLD-A = format: cell-based; conditions: Homo sapiens, colon cancer
# Experimental: as §1
# OVCAR-3 = format: cell-based; conditions: Homo sapiens, OVCAR-3, ovarian cancer
# Experimental: as §1
# U251 = format: cell-based; conditions: Homo sapiens, U-251, U251, CNS cancer
# Experimental: as §1
# RPMT-8226 = format: cell-based; conditions: Homo sapiens, RPMT-8226, leukemia
# Experimental: as §1
# HCT-116 = format: cell-based; conditions: Homo sapiens, HCT-116, colon cancer
# Experimental: as §1
# P388 = format: cell-based, murine; conditions: P388, miscellaneous
# Experimental: as §1
# [1] = read-out: 50% Growth (Relative to Control)
# [2] = read-out: No Growth (Relative to Control)
smiles,measurement,setting,value
"ClCc1ccc2ccc3ccc(CCl)nc3c2n1 [2,9-bis(chloromethyl)-1,10-phenanthroline]",pIC50,HOP-18; [1],5.52
same,CC50,HOP-18; read-out: 50% Loss (50% kill),31.2 µM
same,IC100,HOP-18; [2],9.71 µM
same,pIC50,CCRF-CEM; [1],5.74
same,CC50,CCRF-CEM; read-out: 50% Loss (50% kill),> 100 µM
same,IC100,CCRF-CEM; [2],8.64 µM
same,pIC50,A549/ATCC; [1],5.29
same,CC50,A549/ATCC; read-out: 50% Loss (50% kill),> 100 µM
same,IC100,A549/ATCC; [2],> 100 µM
same,pIC50,SNB-78; [1],5.64
same,CC50,SNB-78; read-out: 50% Loss (50% kill),> 100 µM
same,IC100,SNB-78; [2],6.4 µM
same,pIC50,MCF7; [1],6.25
same,CC50,MCF7; read-out: 50% Loss (50% kill),8.88 µM
same,IC100,MCF7; [2],2.48 µM
same,pIC50,OVCAR-5; [1],5.73
same,CC50,OVCAR-5; read-out: 50% Loss (50% kill),6.63 µM
same,IC100,OVCAR-5; [2],3.52 µM
same,pIC50,M19-MEL; [1],5.88
same,CC50,M19-MEL; read-out: 50% Loss (50% kill),5.28 µM
same,IC100,M19-MEL; [2],2.63 µM
same,pIC50,K-562; [1],5.50
same,CC50,K-562; read-out: 50% Loss (50% kill),> 100 µM
same,IC100,K-562; [2],> 100 µM
same,pIC50,RXF-393; [1],5.78
same,CC50,RXF-393; read-out: 50% Loss (50% kill),6.03 µM
same,IC100,RXF-393; [2],3.16 µM
same,pIC50,HT29; [1],5.88
same,CC50,HT29; read-out: 50% Loss (50% kill),5.48 µM
same,IC100,HT29; [2],2.68 µM
same,pIC50,SN12C; [1],5.47
same,CC50,SN12C; read-out: 50% Loss (50% kill),> 100 µM
same,IC100,SN12C; [2],> 100 µM
same,pIC50,SK-MEL-28; [1],5.87
same,CC50,SK-MEL-28; read-out: 50% Loss (50% kill),6.5 µM
same,IC100,SK-MEL-28; [2],2.97 µM
same,pIC50,UACC-257; [1],6.11
same,CC50,UACC-257; read-out: 50% Loss (50% kill),5.58 µM
same,IC100,UACC-257; [2],2.03 µM
same,pIC50,KM12; [1],6.12
same,CC50,KM12; read-out: 50% Loss (50% kill),6.43 µM
same,IC100,KM12; [2],2.39 µM
same,pIC50,OVCAR-8; [1],5.16
same,CC50,OVCAR-8; read-out: 50% Loss (50% kill),> 100 µM
same,IC100,OVCAR-8; [2],> 100 µM
same,pIC50,UO-31; [1],5.77
same,CC50,UO-31; read-out: 50% Loss (50% kill),6.08 µM
same,IC100,UO-31; [2],3.21 µM
same,pIC50,COLO 205; [1],5.81
same,CC50,COLO 205; read-out: 50% Loss (50% kill),5.54 µM
same,IC100,COLO 205; [2],2.94 µM
same,pIC50,IGROVI; [1],5.82
same,CC50,IGROVI; read-out: 50% Loss (50% kill),6.25 µM
same,IC100,IGROVI; [2],3.07 µM
same,pIC50,DLD-A; [1],5.83
same,CC50,DLD-A; read-out: 50% Loss (50% kill),5.72 µM
same,IC100,DLD-A; [2],2.91 µM
same,pIC50,OVCAR-3; [1],5.76
same,CC50,OVCAR-3; read-out: 50% Loss (50% kill),18.4 µM
same,IC100,OVCAR-3; [2],4.93 µM
same,pIC50,U251; [1],5.69
same,CC50,U251; read-out: 50% Loss (50% kill),8.11 µM
same,IC100,U251; [2],4.09 µM
same,pIC50,RPMT-8226; [1],5.90
same,CC50,RPMT-8226; read-out: 50% Loss (50% kill),> 100 µM
same,IC100,RPMT-8226; [2],36.6 µM
same,pIC50,HCT-116; [1],5.74
same,CC50,HCT-116; read-out: 50% Loss (50% kill),8.31 µM
same,IC100,HCT-116; [2],3.87 µM
same,pIC50,"P388; Mus musculus, read-out: 50% Growth (Relative to Control)",6.13
same,IC100,"P388; Mus musculus, read-out: No Growth (Relative to Control)",3.01 µM
same,CC50,P388; read-out: 50% Loss (50% kill),25.1 µM

# Reference: patent US5545639A, “Method of inhibiting transformed cells” (The United States of America as represented by the …, priority 1994, dated 1996)
